The text below walks through data of patent EP4810052A2, “HCRHR2 SELECTIVE POLYPEPTIDES” (Gubra A/S, priority 2023, dated 2026).

Starred links: 1 amine or outer side, 2 acyl side, 3 side chain; linkers in the order of their positions; H or OH if unused. Non-standard residues stand in square brackets, D forms with d. Residues, ends and D or L forms follow the SMILES beside them. Groups on a side chain read outwards from the residue. *: point of attachment. C20 diacid = O=C(O)CCCCCCCCCCCCCCCCCCC(=O)*; γGlu = O=C(O)[C@H](CCC(=O)[*:2])N[*:1]; NMeI = CC[C@H](C)[C@H](NC)C(=O)O; AEEA = NCCOCCOCC(=O)O

Data set [1] deals with T1, hCRHR1 (Homo sapiens, UniProt P34998).
T1 sequence (P34998 24-415): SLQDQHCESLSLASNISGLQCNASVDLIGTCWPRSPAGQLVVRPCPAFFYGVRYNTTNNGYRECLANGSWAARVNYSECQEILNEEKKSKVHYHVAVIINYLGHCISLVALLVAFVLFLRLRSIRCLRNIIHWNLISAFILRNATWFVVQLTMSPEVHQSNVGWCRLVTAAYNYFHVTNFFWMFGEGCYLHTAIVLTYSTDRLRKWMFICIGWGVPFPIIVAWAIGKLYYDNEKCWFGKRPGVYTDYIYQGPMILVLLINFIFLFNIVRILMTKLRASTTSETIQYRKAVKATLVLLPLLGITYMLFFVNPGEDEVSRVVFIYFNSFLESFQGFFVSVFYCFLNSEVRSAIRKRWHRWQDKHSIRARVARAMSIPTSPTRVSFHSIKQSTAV
Description: cAMP potency, transiently transfected CHO-K1 cells, hCRHR1. Also on record: DYK (FLAG); host or cells: CHO-K1, transiently transfected. Type of data set: cell-based. The conditions noted are these: transiently transfected CHO-K1, average n=3; read-out: Transient cell system EC50 (nM) hCR HR1.

For data set [2], the target named is T2, hCRHR2b (Homo sapiens, UniProt Q13324).
T2 construct: DYK (FLAG); host or cells: CHO-K1, transiently transfected
T2 sequence (Q13324 1-438 isoform Q13324-2): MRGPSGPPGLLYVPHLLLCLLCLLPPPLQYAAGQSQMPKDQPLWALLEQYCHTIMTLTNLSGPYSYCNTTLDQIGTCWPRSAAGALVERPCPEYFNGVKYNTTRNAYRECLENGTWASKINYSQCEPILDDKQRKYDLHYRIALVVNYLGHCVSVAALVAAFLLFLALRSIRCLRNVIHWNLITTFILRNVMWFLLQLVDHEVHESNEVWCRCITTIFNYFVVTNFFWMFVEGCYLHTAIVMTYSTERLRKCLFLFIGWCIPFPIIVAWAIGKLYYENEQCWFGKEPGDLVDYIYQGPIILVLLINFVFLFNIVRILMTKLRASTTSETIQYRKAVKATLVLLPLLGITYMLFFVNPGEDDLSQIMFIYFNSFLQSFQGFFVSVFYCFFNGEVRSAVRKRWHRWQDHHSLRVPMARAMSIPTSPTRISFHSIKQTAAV
Description: cAMP potency, transiently transfected CHO-K1 cells, hCRHR2b. Type of data set: cell-based. The conditions noted are these: transiently transfected CHO-K1, average n=3; read-out: Transient cell system EC50 (nM) hCRHR 2b.

A short description of data set [3]: PK in minipigs. The conditions noted are these: male, Göttingen, minipig, in vivo; for half-life: iv, 6.0 nmol/kg i.v., read-out: T½ (converted). The procedure: Pharmacokinetics studies were determined in male Göttingen minipigs from Ellegaard Göttingen Minipigs A/S. Animals were acclimatised for at least 7 days before placed on study. The minipigs had prior to study been surgically implanted with central venous catheters inserted which were used for blood sampling. Animals were housed under a 12/12 h dark-light cycle with ad libitum access to domestic water and animals were fed a commercially standard maintenance diet twice daily.
Test compounds where administrated either as a cassette or as a single compound. Test compounds were administrated by a single intravenous injection or short infusion (5-10 min) through the implanted catheter or a single subcutaneously injection. The subcutaneously injection was given in the mid neck between ear and scapula with a stopper on the needle, allowing 0.5 cm of the needle to be inserted.Plasma concentration-time profiles employing 12-16 sampling points were obtained from each animal. As an example, blood samples were collected on the following times: 0 (predose), 0.17, 0.33, 0.5, 1, 2, 5, 6, 24, 48, 72, 92, 168, 240 and 336 hrs post administration. Approximately 2 mL blood was drawn from the central catheter from each animal at each sampling point. Blood samples were taken in K2 or K3 EDTA tubes. Blood was kept on ice for maximum 30 min before centrifugation (10 min, 4°C, 2000 x g). Approximately 200 µL plasma samples was transferred to a Micronic tube and stored at -20° or lower.
Pharmacokinetics parameters were calculated by non-compartmental analysis (NCA) of the individual plasma concentrations-time profile from the animals. The log-linear trapezoidal method was used for estimation of AUC and AUMC. The terminal T½ was determined as In(2)/λz where λz is the first order rate constant as determined by the terminal log-linear part of the curve.
Plasma concentrations were measured by LC-MSMS using electrospray ionization and multiple reaction monitoring. Calibration standards and quality control (QC) samples were prepared in specie match matrix. 15 µL calibration standards, QC and study samples were extracted by protein precipitation using 60 µL methanol followed by addition of 45 µL milliQ water. Samples were shaken (800 rpm) at room temperature for 5 min before centrifugation (2570×g, 40 min, 4°C) and the supernatant was transferred to a LoBind PCR plate. Samples were analysed on a Thermo Triscend UHPLC system coupled to a Sciex API 6500+ mass spectrometer. Samples were subject to online SPE clean-up on a HLB column (1×50 mm, Waters) before loaded onto a Aeris Peptide XB C18 column (3.6 µm, 100 Å, 2×50 mm, Phenomenex) analytical column. The mobile phases consisted of acetonitrile and milliQ H2O both containing 0.1% V/V formic acid. The flow rate was 0.60 mL/min and the column was kept at room temperature.

In the case of `CC[C@H](C)[C@H](N)C(=O)N[C@H](C(=O)N[C@@H](CC(C)C)C(=O)N[C@@H](CO)C(=O)N[C@@H](CC(C)C)C(=O)N[C@@H](CC(=O)O)C(=O)N[C@H](C(=O)N1CCC[C@H]1C(=O)N[C@H](C(=O)NCC(=O)N[C@@H](CC(C)C)C(=O)N[C@@H](CC(C)C)C(=O)N[C@@H](CCC(N)=O)C(=O)N[C@H](C(=O)N[C@@H](CC(C)C)C(=O)N[C@@H](CC(C)C)C(=O)N[C@@H](CCC(=O)O)C(=O)N[C@@H](CCC(N)=O)C(=O)N[C@@H](C)C(=O)N[C@@H](CCCNC(=N)N)C(=O)N[C@@H](C)C(=O)N[C@@H](CCCNC(=N)N)C(=O)N[C@@H](C)C(=O)N[C@@H](C)C(=O)N[C@@H](CCCNC(=N)N)C(=O)N[C@@H](CCC(=O)O)C(=O)N[C@@H](CCC(N)=O)C(=O)N[C@@H](C)C(=O)N[C@@H](CCCCNC(=O)COCCOCCNC(=O)COCCOCCNC(=O)CC[C@H](NC(=O)CC[C@H](NC(=O)CCCCCCCCCCCCCCCCCCC(=O)O)C(=O)O)C(=O)O)C(=O)N[C@H](C(=O)N[C@@H](CC(N)=O)C(=O)N[C@@H](C)C(=O)N[C@@H](CCC(=O)O)C(=O)N[C@H](C(=O)N[C@@H](CC(C)C)C(=O)N[C@@H](C)C(=O)N[C@@H](CCC(=O)O)C(=O)N[C@H](C(N)=O)C(C)C)[C@@H](C)CC)[C@@H](C)O)[C@@H](C)CC)[C@@H](C)CC)C(C)C)C(C)C` [SEQ ID NO: 3] (H-IVLSLDVPIGLLQILLEQARARAAREQAK([AEEA-AEEA-γGlu-γGlu-C20 diacid])TNAEILAEV-NH2), in data set [1], the EC50 was greater than 1000 nM. Further, the EC50 in data set [2] is 0.0081 nM. Also, the half-life in data set [3] (Pig) is 156 h. This molecule displayed a bioavailability in data set [3] (sc) of 55%. Also, in data set [3] (sc, Pig, 6.0 nmol/kg s.c), the Cmax was 60 nM and the time to peak (Tmax) was found to be 24 h.

With `CC[C@H](C)[C@H](NC)C(=O)N[C@H](C(=O)N[C@@H](CC(C)C)C(=O)N[C@@H](CO)C(=O)N[C@@H](CC(C)C)C(=O)N[C@@H](CC(=O)O)C(=O)N[C@H](C(=O)N1CCC[C@H]1C(=O)N[C@H](C(=O)NCC(=O)N[C@@H](CC(C)C)C(=O)N[C@@H](CC(C)C)C(=O)N[C@@H](CCC(N)=O)C(=O)N[C@H](C(=O)N[C@@H](CC(C)C)C(=O)N[C@@H](CC(C)C)C(=O)N[C@@H](CCC(=O)O)C(=O)N[C@@H](CCC(N)=O)C(=O)N[C@@H](C)C(=O)N[C@@H](CCCNC(=N)N)C(=O)N[C@@H](C)C(=O)N[C@@H](CCCNC(=N)N)C(=O)N[C@@H](C)C(=O)N[C@@H](C)C(=O)N[C@@H](CCCNC(=N)N)C(=O)N[C@@H](CCC(=O)O)C(=O)N[C@@H](CCC(N)=O)C(=O)N[C@@H](C)C(=O)N[C@H](C(=O)N[C@@H](CCCCNC(=O)COCCOCCNC(=O)COCCOCCNC(=O)CC[C@H](NC(=O)CC[C@H](NC(=O)CCCCCCCCCCCCCCCCCCC(=O)O)C(=O)O)C(=O)O)C(=O)N[C@@H](CC(N)=O)C(=O)N[C@@H](C)C(=O)N[C@@H](CCC(=O)O)C(=O)N[C@H](C(=O)N[C@@H](CC(C)C)C(=O)N[C@@H](C)C(=O)N[C@@H](CCC(=O)O)C(=O)N[C@H](C(N)=O)C(C)C)[C@@H](C)CC)[C@@H](C)O)[C@@H](C)CC)[C@@H](C)CC)C(C)C)C(C)C` [SEQ ID NO: 6] (H-[NMeI]VLSLDVPIGLLQILLEQARARAAREQATK([AEEA-AEEA-γGlu-γGlu-C20 diacid])NAEILAEV-NH2), the EC50 is greater than 1000 nM in data set [1] and 0.015 nM in data set [2]. Also, the half-life in data set [3] (Pig) is 145 h.
